Results taken from PubChem BioAssay (NCI).
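Exposure lasted 48 hours, with cells grown in 96-well plates and compounds tested at five concentrations. TGI is the concentration that stops growth completely.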

Columns and labels:
Test in all cases: inhibition of tumour cell growth, NCI panel, 48 h
786-0 renal = tested on: 786-0 renal
A498 renal = tested on: A498 renal
ACHN renal = tested on: ACHN renal
CAKI-1 renal = tested on: CAKI-1 renal
COLO 205 colon = tested on: COLO 205 colon
HCT-15 colon = tested on: HCT-15 colon
HOP-92 NSCLC = tested on: HOP-92 NSCLC
HS 578T breast = tested on: HS 578T breast
M14 melanoma = tested on: M14 melanoma
MALME-3M melanoma = tested on: MALME-3M melanoma
NCI-H226 lung = tested on: NCI-H226 lung
NCI-H460 lung = tested on: NCI-H460 lung
NCI-H522 lung = tested on: NCI-H522 lung
OVCAR-8 ovarian = tested on: OVCAR-8 ovarian
RXF 393 renal = tested on: RXF 393 renal
SF-268 CNS = tested on: SF-268 CNS
SF-539 CNS = tested on: SF-539 CNS
SK-MEL-2 melanoma = tested on: SK-MEL-2 melanoma
U251 CNS = tested on: U251 CNS

| Compound | TGI (786-0 renal) | TGI (A498 renal) | TGI (ACHN renal) | TGI (CAKI-1 renal) | TGI (COLO 205 colon) | TGI (HCT-15 colon) | TGI (HOP-92 NSCLC) | TGI (HS 578T breast) | TGI (M14 melanoma) | TGI (MALME-3M melanoma) | TGI (NCI-H226 lung) | TGI (NCI-H460 lung) | TGI (NCI-H522 lung) | TGI (OVCAR-8 ovarian) | TGI (RXF 393 renal) | TGI (SF-268 CNS) | TGI (SF-539 CNS) | TGI (SK-MEL-2 melanoma) | TGI (U251 CNS) |
| --- | --- | --- | --- | --- | --- | --- | --- | --- | --- | --- | --- | --- | --- | --- | --- | --- | --- | --- | --- |
| CC1(C#N)CC(C)(C)C(/C=C2/CC(C)(C)C(/C=C3/OC(=N)CC3(C)C)=N2)=N1 (centres undefined) | 62.6 µM | 37.8 µM | 58.9 µM | > 100 µM | 34.4 µM | 44.1 µM | 39.9 µM | 58.9 µM | 85.8 µM | 20 µM | > 100 µM | 39.9 µM | 34 µM | 74 µM | 44.5 µM | > 100 µM | > 100 µM | > 100 µM | > 100 µM |
| N#CSc1nc[nH]c1C(N)=O | 98.8 µM | > 100 µM | > 100 µM | > 81.6 µM | > 100 µM | > 100 µM | > 100 µM | > 100 µM | > 100 µM | 56.6 µM | > 100 µM | > 100 µM | > 100 µM | > 100 µM | > 100 µM | > 100 µM | > 100 µM | > 100 µM | > 100 µM |
| C=CCNC1=C2C[C@@H](C)C[C@@H](OC)[C@@H](OC(=O)CCCN)[C@H](C)/C=C(\C)[C@@H](OC(N)=O)[C@H](OC)/C=C\C=C(/C)C(=O)NC(=CC1=O)C2=O | 42.2 µM | 36.3 µM | 38.9 µM | 35.3 µM | 13.6 µM | 41.2 µM | 29.3 µM | 49.5 µM | 28.7 µM | 27.8 µM | 36.3 µM | 59 µM | 26.4 µM | 42.5 µM | 42.2 µM | 30.7 µM | 29.9 µM | 31 µM | > 50.4 µM |
| C/C(=N\Nc1cc(CN2CCCC2)c(-c2ccc(Cl)cc2)nn1)C(=O)O | > 100 µM | > 100 µM | > 100 µM | > 100 µM | > 100 µM | > 100 µM | > 100 µM | > 100 µM | > 100 µM | > 100 µM | > 100 µM | > 100 µM | > 100 µM | > 100 µM | > 100 µM | > 100 µM | > 100 µM | > 100 µM | > 100 µM |
| COc1cccc(OC)c1/C=C1\OC(=O)c2cccc(OC)c21 | > 100 µM | 32.3 µM | > 100 µM | > 75.2 µM | 30.9 µM | > 100 µM | > 63 µM | 26.7 µM | > 58.9 µM | > 95.5 µM | > 29.5 µM | > 100 µM | 12.2 µM | > 100 µM | 65 µM | > 100 µM | 6.21 µM | > 30.1 µM | > 100 µM |
| CC(=O)c1csc2c1C(=O)c1scc(C(C)=O)c1C2=O | 4.12 µM | 2.93 µM | 3.24 µM | 4.1 µM | 3.63 µM | 3.2 µM | 3.92 µM | 6.48 µM | 3.1 µM | 2.95 µM | 4.14 µM | 2.35 µM | 1.75 µM | 3.09 µM | 3.9 µM | 3.44 µM | 3.28 µM | 3.73 µM | 2.9 µM |
